“And” between values parts separate entries of the source, which are not always exact repeats. Equal entries are not always repeated. Toxic doses and inconclusive results are not listed. The calls were made as follows: active = survival T/C of 150% or more; inactive = T/C below 125% in these data.
System: BDF1 mice, P388 leukemia ip, median survival T/C
Experiment: NCI In Vivo Anticancer Drug Screen. Data for tumor model P388 Leukemia (intraperitoneal) in B6D2F1 (BDF1) mice
Settings: endpoint: median survival time, higher = longer survival
Summary of the method: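 Survival ratio, drug arm over vehicle arm, in mice with a transplanted tumour.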

[1] = dose: 100.0 mg/kg/injection, schedule: Q01DX009 (ip), vehicle: other
[2] = dose: 200.0 mg/kg/injection, schedule: Q01DX009 (ip), vehicle: other
[3] = dose: 400.0 mg/kg/injection, schedule: Q01DX009 (ip), vehicle: other
[4] = dose: 100.0 mg/kg/injection, schedule: Q01DX009 (ip), vehicle: saline with Tween-80
[5] = dose: 25.0 mg/kg/injection, schedule: Q01DX009 (ip), vehicle: saline with Tween-80
[6] = dose: 100.0 mg/kg/injection, schedule: Q04DX003 (ip), vehicle: saline with Tween-80
[7] = dose: 50.0 mg/kg/injection, schedule: Q01DX009 (ip), vehicle: saline
[8] = dose: 100.0 mg/kg/injection, schedule: Q01DX009 (ip), vehicle: saline
[9] = dose: 100.0 mg/kg/injection, schedule: Q04DX003 (ip), vehicle: saline
[10] = dose: 200.0 mg/kg/injection, schedule: Q04DX003 (ip), vehicle: saline
[11] = dose: 200.0 mg/kg/injection, schedule: Q04DX003 (ip), vehicle: saline with Tween-80
[12] = dose: 400.0 mg/kg/injection, schedule: Q04DX003 (ip), vehicle: saline with Tween-80

Measured: T/C

CCOC(=O)C1=C(C)NC(C)=C(C(=O)OCC)C1c1cc(OC)c(OC)c(OC)c1
inactive: dose: 25.0 mg/kg/injection, schedule: Q01DX009 (ip), vehicle: other 100 % of control | dose: 50.0 mg/kg/injection, schedule: Q01DX009 (ip), vehicle: other 95 % of control | [1] 96 % of control | [2] 95 % of control | [3] 87 % of control

CCCCCCC(=O)/C=C/c1ccccc1Cl
inactive: [4] 102 % of control | dose: 200.0 mg/kg/injection, schedule: Q01DX009 (ip), vehicle: saline with Tween-80 118 % of control | dose: 400.0 mg/kg/injection, schedule: Q01DX009 (ip), vehicle: saline with Tween-80 93 % of control

COC(=O)c1[nH]cnc1/N=N\N(CCF)CCF
active: dose: 16.5 mg/kg/injection, schedule: Q01DX009 (ip), vehicle: saline with Tween-80 179 % of control | [5] 188 % of control | dose: 37.5 mg/kg/injection, schedule: Q01DX009 (ip), vehicle: saline with Tween-80 166 % of control | dose: 44.0 mg/kg/injection, schedule: Q04DX003 (ip), vehicle: saline with Tween-80 168 % of control | dose: 66.0 mg/kg/injection, schedule: Q04DX003 (ip), vehicle: saline with Tween-80 218 % of control
inactive: [6] 86 % of control

COc1ccc(NC2=CC(=O)C(=O)C=C2Nc2ccc(OC)cc2)cc1
inactive: dose: 15.0 mg/kg/injection, schedule: Q01DX009 (ip), vehicle: saline with Tween-80 93 % of control | dose: 30.0 mg/kg/injection, schedule: Q01DX009 (ip), vehicle: saline with Tween-80 93 % of control | dose: 60.0 mg/kg/injection, schedule: Q01DX009 (ip), vehicle: saline with Tween-80 91 % of control

CC1(c2ccc(N(CCCl)CCCl)cc2)NC(=O)NC1=O (stereo unspecified)
active: dose: 25.0 mg/kg/injection, schedule: Q01DX009 (ip), vehicle: Klucel (hydroxypropylcellulose) (HPC) 191 % of control | dose: 100.0 mg/kg/injection, schedule: Q01DX009 (ip), vehicle: Klucel (hydroxypropylcellulose) (HPC) 260 % of control
inactive: dose: 6.25 mg/kg/injection, schedule: Q01DX009 (ip), vehicle: Klucel (hydroxypropylcellulose) (HPC) 121 % of control | dose: 12.5 mg/kg/injection, schedule: Q01DX009 (ip), vehicle: Klucel (hydroxypropylcellulose) (HPC) 122 % of control

CC(C)(CC(=O)O)CC(=O)OCC(=O)[C@@]1(O)CC[C@H]2[C@@H]3CCC4=CC(=O)C=C[C@]4(C)[C@H]3[C@@H](O)C[C@@]21C
inactive: dose: 100.0 mg/kg/injection, schedule: Q01DX009 (ip), vehicle: steriod suspending solution 100 % of control | dose: 100.0 mg/kg/injection, schedule: Q01DX009 (sc), vehicle: steriod suspending solution 120 % of control | dose: 100.0 mg/kg/injection, schedule: Q04DX003 (sc), vehicle: steriod suspending solution 108 % of control | dose: 200.0 mg/kg/injection, schedule: Q01DX009 (ip), vehicle: steriod suspending solution 90 % of control | dose: 200.0 mg/kg/injection, schedule: Q01DX009 (sc), vehicle: steriod suspending solution 120 % of control and 122 % of control | dose: 200.0 mg/kg/injection, schedule: Q04DX003 (sc), vehicle: steriod suspending solution 100 % of control | dose: 400.0 mg/kg/injection, schedule: Q01DX009 (ip), vehicle: steriod suspending solution 90 % of control | dose: 400.0 mg/kg/injection, schedule: Q01DX009 (sc), vehicle: steriod suspending solution 110 % of control | dose: 400.0 mg/kg/injection, schedule: Q04DX003 (sc), vehicle: steriod suspending solution 104 % of control

CC(=O)Nc1ccc(C)c([N+](=O)[O-])c1
inactive: [7] 92 % of control | [8] 97 % of control | [9] 99 % of control | dose: 200.0 mg/kg/injection, schedule: Q01DX009 (ip), vehicle: saline 118 % of control | [10] 100 % of control | dose: 400.0 mg/kg/injection, schedule: Q04DX003 (ip), vehicle: saline 90 % of control

COc1ccc(N=C/C=C/c2ccccc2)cc1
inactive: [6] 104 % of control | [11] 100 % of control | [12] 109 % of control

Cc1ccc(OC(=O)Nc2ccc(C(=O)O)c(O)c2)cc1
inactive: [7] 118 % of control | [8] 109 % of control | [9] 100 % of control | [10] 113 % of control

CC(C)CCSc1nc(N)nc2nc[nH]c12
inactive: [1] 86 % of control | [6] 100 % of control | [2] 90 % of control | [11] 109 % of control | [3] 109 % of control | [12] 109 % of control

COc1cc2c(c(OC)c1OC)-c1cc3c(cc1[C@@H](OC(C)=O)[C@@H]1COC(=O)[C@H]1C2)OCO3
inactive: dose: 1.0 mg/kg/injection, schedule: Q01DX009 (ip), vehicle: saline + alcohol 118 % of control | dose: 1.3 mg/kg/injection, schedule: Q01DX009 (ip), vehicle: saline 100 % of control | dose: 1.77 mg/kg/injection, schedule: Q01DX009 (ip), vehicle: saline 100 % of control | dose: 2.0 mg/kg/injection, schedule: Q01DX009 (ip), vehicle: saline + alcohol 118 % of control | dose: 2.0 mg/kg/injection, schedule: Q01DX009 (ip), vehicle: saline 100 % of control | dose: 2.66 mg/kg/injection, schedule: Q01DX009 (ip), vehicle: saline 90 % of control | dose: 3.0 mg/kg/injection, schedule: Q01DX009 (ip), vehicle: saline 104 % of control | dose: 4.0 mg/kg/injection, schedule: Q01DX009 (ip), vehicle: saline + alcohol 118 % of control | dose: 4.0 mg/kg/injection, schedule: Q01DX009 (ip), vehicle: saline 90 % of control | dose: 6.0 mg/kg/injection, schedule: Q01DX009 (ip), vehicle: saline 100 % of control | dose: 6.22 mg/kg/injection, schedule: Q01DX009 (ip), vehicle: saline + alcohol 116 % of control | dose: 8.0 mg/kg/injection, schedule: Q01DX009 (ip), vehicle: saline + alcohol 113 % of control | dose: 8.9 mg/kg/injection, schedule: Q01DX009 (ip), vehicle: saline 104 % of control | dose: 9.33 mg/kg/injection, schedule: Q01DX009 (ip), vehicle: saline + alcohol 112 % of control | dose: 12.0 mg/kg/injection, schedule: Q01DX009 (ip), vehicle: saline 115 % of control | dose: 13.3 mg/kg/injection, schedule: Q01DX009 (ip), vehicle: saline 113 % of control | dose: 14.0 mg/kg/injection, schedule: Q01DX009 (ip), vehicle: saline + alcohol 120 % of control | dose: 18.0 mg/kg/injection, schedule: Q01DX009 (ip), vehicle: saline 100 % of control | dose: 20.0 mg/kg/injection, schedule: Q01DX009 (ip), vehicle: saline 109 % of control | dose: 21.0 mg/kg/injection, schedule: Q01DX009 (ip), vehicle: saline + alcohol 91 % of control

CC(N)Cc1ccc(N(C)C)cc1F (stereo unspecified)
inactive: [5] 96 % of control | dose: 25.0 mg/kg/injection, schedule: Q01DX009 (ip), vehicle: saline 103 % of control | dose: 50.0 mg/kg/injection, schedule: Q01DX009 (ip), vehicle: saline with Tween-80 96 % of control | [7] 98 % of control and 107 % of control | [4] 107 % of control | [8] 96 % of control

COc1cc([C@@H]2c3cc4c(cc3[C@H](SC(=N)N)[C@H]3COC(=O)[C@H]23)OCO4)cc(OC)c1OC
active: dose: 18.0 mg/kg/injection, schedule: Q01DX009 (ip), vehicle: Klucel (hydroxypropylcellulose) (HPC) 152 % of control | dose: 27.0 mg/kg/injection, schedule: Q01DX009 (ip), vehicle: Klucel (hydroxypropylcellulose) (HPC) 171 % of control
inactive: dose: 1.4 mg/kg/injection, schedule: Q01DX010 (ip), vehicle: carboxymethylcellulose (CMC) 105 % of control | dose: 2.8 mg/kg/injection, schedule: Q01DX010 (ip), vehicle: carboxymethylcellulose (CMC) 100 % of control | dose: 5.6 mg/kg/injection, schedule: Q01DX010 (ip), vehicle: carboxymethylcellulose (CMC) 110 % of control

COc1ccc(CC2c3cc(OC)c(OC)cc3CC[N+]2(C)C)cc1OC (stereo unspecified)
inactive: dose: 12.5 mg/kg/injection, schedule: Q01DX009 (ip), vehicle: saline sonified 108 % of control | dose: 25.0 mg/kg/injection, schedule: Q01DX009 (ip), vehicle: saline sonified 100 % of control | dose: 50.0 mg/kg/injection, schedule: Q01DX009 (ip), vehicle: saline sonified 91 % of control

CC(C)Cc1c[nH]c(=O)[nH]c1=O
inactive: [6] 90 % of control | [11] 90 % of control | [12] 90 % of control

— PubChem BioAssay AID328 (DTP/NCI, 2004)
